Source: patent US20020077317A1, “Method of potentating the action of 2-methoxyoestradiol, statins and C-peptide of proinsulin” (priority 2000, published 2002)
pIC50: −log10 of the molar value.

Legend:
[1] = tested on: tumor cells and normal cells; experiment: PUFAs on tumor cells and normal cells in vitro; type: cell-based; settings: for killing of tumor cells versus normal cells: in vitro
From the text: (§1) Tumor cells are not only deficient in PUFAs but also have low rate(s) of lipid peroxidation and low amounts of superoxide dismutase (SOD), and contain relatively large amounts of antioxidants such as vitamin E. It is also believed that low rates of lipid peroxidation and consequent low amounts of lipid peroxides in the cells can contribute to an increase in the mitotic process which ultimately leads to an increase in cell proliferation. Thus, a deficiency of PUFAs, high amounts of antioxidants and the presence of low amounts of lipid peroxides in the tumor cells can contribute to the growth of tumor cells.
(§2) Essential fatty acids are precursors of eicosanoids and are important structural components of cell membranes. They also provide the substrates for the generation of lipid peroxidation products which have an inhibitory action on cell proliferation. Tumor cells are known to have low delta-6-desaturase activity, an enzyme necessary for the desaturation of dietary linoleic acid (LA, 18:2, n-6) and alpha-linolenic acid (ALA, 18:3, n-3) to their respective products. […] This selective tumoricidal action of fatty acids seems to be mediated by free radicals and lipid peroxides.

[2] = tested on: free radical generation and lipid peroxidation; settings: cited from earlier work
delta-6-desaturase = delta-6-desaturase (Homo sapiens, UniProt O95864); experiment: delta-6-desaturase activity; type: biochemical
delta-6-desaturase, sequence (O95864 whole entry, species assumed): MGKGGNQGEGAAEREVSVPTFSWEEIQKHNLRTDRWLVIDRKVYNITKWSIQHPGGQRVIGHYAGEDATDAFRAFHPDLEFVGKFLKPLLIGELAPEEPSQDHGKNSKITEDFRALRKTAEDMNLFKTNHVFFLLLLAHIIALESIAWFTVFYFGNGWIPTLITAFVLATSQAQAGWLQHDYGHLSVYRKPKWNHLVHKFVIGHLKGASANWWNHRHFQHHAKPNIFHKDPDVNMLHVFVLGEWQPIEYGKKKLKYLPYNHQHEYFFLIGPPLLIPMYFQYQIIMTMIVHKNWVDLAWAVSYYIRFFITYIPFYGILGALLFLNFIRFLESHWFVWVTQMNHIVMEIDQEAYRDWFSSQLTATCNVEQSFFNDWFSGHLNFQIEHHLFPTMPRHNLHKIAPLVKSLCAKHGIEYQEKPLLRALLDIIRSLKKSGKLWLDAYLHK
From the text: as §2

delta-5-desaturase = delta-5-desaturase (Homo sapiens, UniProt O60427); experiment: delta-5-desaturase activity; type: biochemical
delta-5-desaturase, sequence (O60427 whole entry, species assumed): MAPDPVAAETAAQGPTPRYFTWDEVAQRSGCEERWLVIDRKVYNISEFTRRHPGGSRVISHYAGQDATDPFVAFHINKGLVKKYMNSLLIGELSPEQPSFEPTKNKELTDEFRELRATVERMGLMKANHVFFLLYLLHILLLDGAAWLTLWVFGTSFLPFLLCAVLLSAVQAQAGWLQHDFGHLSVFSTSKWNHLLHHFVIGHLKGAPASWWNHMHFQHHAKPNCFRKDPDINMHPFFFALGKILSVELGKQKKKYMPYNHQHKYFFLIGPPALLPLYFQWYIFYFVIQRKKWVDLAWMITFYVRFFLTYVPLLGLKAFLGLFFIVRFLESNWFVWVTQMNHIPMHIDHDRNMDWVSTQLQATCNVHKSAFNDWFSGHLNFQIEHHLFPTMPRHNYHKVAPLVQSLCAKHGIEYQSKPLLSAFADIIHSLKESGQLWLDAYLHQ
From the text: as §2

skin papilloma = skin papilloma in mice; type: in vivo; settings: pure fatty acid or fatty acid rich oils
hepatoma = hepatoma in rats; type: in vivo; settings: pure fatty acid or fatty acid rich oils
tumor cells = experiment: PUFA potentiation of anti-cancer drugs in tumor cells; type: cell-based; settings: for cytotoxic action of doxorubicin, vincristine and cis-platinum: fatty acid added to anti-cancer drug
KB-Ch^R-8-5 = experiment: vincristine resistant KB-ChR-8-5 tumor cells; type: cell-based
ascitic tumor cells = ascitic tumor cells in the peritoneum; type: in vivo; settings: experimental animals; pure fatty acid or fatty acid rich oils
[3] = tested on: TNF resistant L-929 tumor cells; experiment: TNF resistant L-929 tumor cells in vitro; type: cell-based; settings: for killing of TNF resistant L-929 tumor cells: in vitro; for sensitisation of TNF-resistant L-929 cells to TNF: prior treatment with fatty acid
[4] = tested on: normal and tumor cells grown together; experiment: mixed culture of normal and tumor cells; type: cell-based
From the text: as §1

[5] = tested on: normal human skin fibroblasts; settings: at 100 micro M concentration; cited from earlier work
[6] = tested on: SOD (superoxide dismutase); settings: cited from earlier work
endothelial cells = settings: read-out: half-maximal inhibitory concentration (IC50); cited from earlier work
solid tumors = settings: cited from earlier work
[7] = tested on: breast cancer cells, MCF-7; settings: cited from earlier work
p53 protein = settings: cited from earlier work
[8] = tested on: Chinese Hamster V79 cells; settings: in culture; cited from earlier work
[9] = tested on: proliferating endothelial cells; settings: cited from earlier work
[10] = tested on: subcutaneous hemangioendothelioma; settings: mice with hemangioendothelioma and disseminated intravascular coagulopathy; cited from earlier work
[11] = tested on: bovine capillary endothelial cells; settings: in vitro; cited from earlier work
bone marrow cells = experiment: side effects of anti-cancer agents on mouse bone marrow cells; type: in vivo; settings: mice
From the text: […], it is desirable that PUFAs should be delivered to the patients in such a manner that they are easily available to the tumor cells and are delivered selectively to the tumor cells.

endothelial cell = settings: cited from earlier work
[12] = tested on: primary and metastatic tumors; settings: experimental animals; cited from earlier work
[13] = proliferating endothelial cells

In the case of `CC\C=C/C=C/C=C/C=C\CCCCCCCC(=O)O` [cis-parinaric acid], the “killing of tumor cells versus normal cells” value [1] was “only tumor cells are killed”.

In the case of superoxide dismutase, the “free radical generation and lipid peroxidation generated by GLA, EPA and DHA” value [2] is given as “completely inhibit free radical generation and lipid peroxidation”.

In the case of `CCN(CC)N=O` [DEN, diethylnitrosamine], the “activity of delta-6-desaturase” value (delta-6-desaturase) was “can suppress the activity” and the “activity of delta-5-desaturase” value (delta-5-desaturase) was “can suppress the activity”.

In the case of `CCCCC/C=C\C/C=C\C/C=C\C/C=C\CCCC(=O)O` [AA, arachidonic acid], the “growth of skin papilloma” value (skin papilloma) was “inhibit the growth”, the tumor cell proliferation [1] was “decrease tumor cell proliferation” and the “killing of tumor cells versus normal cells” value [1] was “only tumor cells are killed”. For the same molecule, the “formation and growth of hepatoma” value (hepatoma) was “inhibit the growth”, the “cellular uptake of anti-cancer drugs by tumor cells” value (“cellular uptake” below) (tumor cells) was “enhance the cellular uptake” and the “cytotoxic action of doxorubicin, vincristine and cis-platinum” value (shortened to “cytotoxic action of doxorubicin”) (tumor cells) was “can be augmented”. The “sensitisation of vincristine resistant cells to vincristine” value (KB-Ch^R-8-5) was “made sensitive to the cytotoxic action of vincristine”, the “growth of ascitic tumor cells in the peritoneum” value (shortened to “growth of ascitic tumor cells”) (ascitic tumor cells) was “inhibit the growth” and the “killing of TNF resistant L-929 tumor cells” value [3] was “able to kill”. For the same molecule, the “sensitisation of TNF-resistant L-929 cells to TNF” value [3] was “rendered TNF sensitive” and the “selective tumoricidal action in mixed culture” value [4] was “effective to some extent”.

In the case of `COc1cc2c(cc1O)CC[C@@H]1[C@@H]2CC[C@]2(C)[C@@H](O)CC[C@@H]12` [2-ME, 2-methoxyoestradiol], the “effect on normal human skin fibroblasts” value [5] is listed as “no effect”, the “binding to SOD” value [6] is listed as “able to bind to SOD” and the pIC50 (endothelial cells) is listed as 6.82. The general toxicity (solid tumors; in vivo) was “not associated with general toxicity”, the “capillary formation in and growth of solid tumors” value (solid tumors; oral administration, mice) was “inhibit capillary formation in solid tumors and reduce their growth” and the “action on MCF-7 cells” value [7] was “cytotoxic action”. The “accumulation of p53 protein” value (p53 protein) was “induce the accumulation of p53 protein” and the “growth of Chinese Hamster V79 cells” value [8] was “suppres the growth”.

For angiostatin®, the cell cycle progression [9] is listed as “did not alter cell cycle progression significantly”, the adhesion activity [9, 13] is listed as “enhanced the adhesion activity” and the “change in expression of E-selectin” value [9, 13] is listed as 4 to 5 fold. For the same molecule, the “size of the tumor” value [10] was “significant reduction in the size of the tumor”, the survival [10] was “increased survival” and the “proliferation/growth of bovine capillary endothelial cells” value [11] was “inhibit the growth of bovine capillary endothelial cells”.

For `CC/C=C\C/C=C\C/C=C\C/C=C\C/C=C\CCCC(=O)O` [EPA, eicosapentaenoic acid], the “cytotoxic action of doxorubicin” value (tumor cells) was “can be augmented” and the “side effects of gamma-radiation and cis-platinum to bone marrow cells” value (shortened to “side effects”) (bone marrow cells) was “prevent or ameliorate the side effects”.

In the case of Endostatin®, the “endothelial cell proliferation and angiogenesis” value (endothelial cell) is given as “specifically inhibit endothelial cell proliferation and angiogenesis” and the “primary and metastatic tumors” value [12] is given as “dramatic reduction of primary and metastatic tumors”.

For `CCCCC/C=C\C/C=C\CCCCCCCC(=O)O` [LA, linoleic acid], the “killing of tumor cells versus normal cells” value [1] was “only tumor cells are killed”.

In the case of `CCCCC/C=C\C/C=C\C/C=C\CCCCCCC(=O)O` [DGLA, dihomo-GLA], the “growth of skin papilloma” value (skin papilloma) was “inhibit the growth”, the tumor cell proliferation [1] was “decrease tumor cell proliferation” and the “killing of tumor cells versus normal cells” value [1] was “only tumor cells are killed”. The “formation and growth of hepatoma” value (hepatoma) was “inhibit the growth”, the “cellular uptake” value (tumor cells) was “enhance the cellular uptake” and the “cytotoxic action of doxorubicin” value (tumor cells) was “can be augmented”. The “sensitisation of vincristine resistant cells to vincristine” value (KB-Ch^R-8-5) was “made sensitive to the cytotoxic action of vincristine”, the “growth of ascitic tumor cells” value (ascitic tumor cells) was “inhibit the growth” and the “side effects” value (bone marrow cells) was “prevent or ameliorate the side effects”. The “killing of TNF resistant L-929 tumor cells” value [3] was “able to kill” and the “sensitisation of TNF-resistant L-929 cells to TNF” value [3] was “rendered TNF sensitive”.

For vitamin E, the “free radical generation and lipid peroxidation generated by GLA, EPA and DHA” value [2] is given as “completely inhibit free radical generation and lipid peroxidation”.

In the case of `CC(=O)Nc1ccc2c(c1)Cc1ccccc1-2` [2-AAF, 2-acetylaminofluorine], the “activity of delta-6-desaturase” value (delta-6-desaturase) was “can suppress the activity” and the “activity of delta-5-desaturase” value (delta-5-desaturase) was “can suppress the activity”.

In the case of `CCCCC/C=C\C/C=C\C/C=C\CCCCC(=O)O` [GLA, gamma-linolenic acid], the tumor cell proliferation [1] was “decrease tumor cell proliferation”, the “killing of tumor cells versus normal cells” value [1] was “only tumor cells are killed” and the “formation and growth of hepatoma” value (hepatoma) was “inhibit the growth”. For the same molecule, the “cellular uptake” value (tumor cells) was “enhance the cellular uptake”, the “cytotoxic action of doxorubicin” value (tumor cells) was “can be augmented” and the “growth of ascitic tumor cells” value (ascitic tumor cells) was “inhibit the growth”. The “side effects” value (bone marrow cells) was “prevent or ameliorate the side effects” and the “killing of TNF resistant L-929 tumor cells” value [3] was “able to kill”.

In the case of `CC/C=C\C/C=C\C/C=C\CCCCCCCC(=O)O` [ALA, alpha-linolenic acid], the “killing of tumor cells versus normal cells” value [1] was “only tumor cells are killed”.

In the case of `CC/C=C\C/C=C\C/C=C\C/C=C\C/C=C\C/C=C\CCC(=O)O` [DHA, docosahexaenoic acid], the “cytotoxic action of doxorubicin” value (tumor cells) was “can be augmented”.
